Assay results as given in ChEMBL document CHEMBL3739257, “Aryl amide small-molecule inhibitors of microRNA miR-21 function” (Bioorg Med Chem Lett, 2015).
One block for each compound: values may come before it. The source made the active and inactive calls. No cut-off for these calls is given here.

How the values were obtained:
HeLa [1] = experiment: Inhibition of microRNA miR-21 expression in human HeLa cells assessed as reduction of intracellular miR-21 level by measuring luciferase signal relative to control; type: cell-based
HeLa [2] = experiment: Inhibition of miR-125b expression in human HeLa cells at 10 uM after 48 hrs by qRT-PCR analysis; type: functional, cell-based
HeLa [3] = experiment: Inhibition of microRNA miR-21P transfected in human HeLa cells assessed as luciferase signal at 10 uM; type: cell-based
Lampyridae = experiment: Inhibition of firefly luciferase at 10 uM preincubated for 1 hr followed by ATP addition measured after 3 mins by CellTiter-Glo assay
HeLa [4] = experiment: Inhibition of miR-17-5p expression in human HeLa cells at 10 uM after 48 hrs by qRT-PCR analysis; type: functional, cell-based
HeLa [5] = experiment: Inhibition of miR-21 expression in human HeLa cells at 10 uM after 48 hrs by qRT-PCR analysis; type: functional
[6] = Inhibition of microRNA miR-21 expression in human HeLa cells assessed as luciferase signal at 10 uM after 48 hrs by microplate reader analysis; type: cell-based
HeLa [7] = experiment: Inhibition of miR-222 expression in human HeLa cells at 10 uM after 48 hrs by qRT-PCR analysis; type: functional, cell-based
HeLa [8] = experiment: Inhibition of primary microRNA miR-21 expression in human HeLa cells assessed as luciferase signal at 10 uM by qRT-PCR analysis relative to control; type: cell-based
HeLa [9] = experiment: Inhibition of microRNA miR-21 expression in human HeLa cells assessed as luciferase signal at 10 uM after 48 hrs by microplate reader analysis relative to control; type: cell-based
Huh-7 = experiment: Inhibition of microRNA miR-122 expression in human Huh7-psiCHECK cells assessed as luciferase expression at 10 uM after 48 hrs by microplate reader analysis; type: cell-based

Compound: COc1ccc(C(=O)NCCCc2ccccc2)cc1
fold change (FC) (HeLa [1]): 1.94

Compound: COc1ccc(C(=O)NCCc2ccccc2)cc1
fold change (FC) (HeLa [1]): 0.5

Compound: COc1ccc(C(=O)NCCC2=CCCCC2)cc1O
fold change (FC) (HeLa [1]): 1.63

inhibition (Lampyridae): inactive
EC50 [6]: 2.3 µM
Compound: COc1ccc(C(=O)Nc2ccccc2)cc1
inhibition (HeLa [2]): inactive
inhibition (HeLa [3]): inactive
inhibition (HeLa [4]): inactive
inhibition at 10 µM (HeLa [5]): 43%
fold change (FC) (HeLa [1]): 2.39
inhibition (HeLa [7]): inactive
inhibition (HeLa [8]): inactive

Compound: O=C(NCCc1ccccc1)c1ccc(Oc2ccccc2)cc1
fold change (FC) (HeLa [1]): 1.4

Compound: COc1ccc(C(=O)NCc2ccccc2)cc1
fold change (FC) (HeLa [1]): 1.43

Compound: CCOc1ccc(C(=O)NCCc2ccccc2)cc1
fold change (FC) (HeLa [1]): 1.56

Compound: COc1ccc(C(=O)NCCC2CCCCC2)cc1O
fold change (FC) (HeLa [1]): 1.93

Compound: O=C(NCCC1=CCCCC1)c1ccccc1
fold change (FC) (HeLa [1]): 1.58

inhibition (Lampyridae): inactive
EC50 [6]: 10.8 µM
Compound: COc1ccc(C(=O)NCCC2=CCCCC2)cc1OC
inhibition (HeLa [2]): inactive
inhibition (HeLa [9]): > 100%
inhibition (HeLa [3]): inactive
inhibition (Huh-7): inactive
inhibition (HeLa [4]): inactive
inhibition at 10 µM (HeLa [5]): 17%
fold change (FC) (HeLa [1]): 2.01
inhibition (HeLa [7]): inactive
inhibition (HeLa [8]): inactive

inhibition (Lampyridae): inactive
EC50 [6]: 0.86 µM
Compound: COc1ccc(NC(=O)c2ccc(OC)cc2)cc1
inhibition (HeLa [2]): inactive
inhibition (HeLa [9]): > 100%
inhibition (HeLa [3]): inactive
inhibition (Huh-7): inactive
inhibition (HeLa [4]): inactive
inhibition at 10 µM (HeLa [5]): 61%
fold change (FC) (HeLa [1]): 2.88
inhibition (HeLa [7]): inactive
inhibition (HeLa [8]): inactive

Compound: COc1ccc(C(=O)NCCc2ccc3ccccc3c2)cc1
fold change (FC) (HeLa [1]): 1.41

Compound: COc1ccc(C(=O)Nc2ccc3ccccc3c2)cc1
inhibition (HeLa [9]): > 100%
inhibition (Huh-7): inactive
fold change (FC) (HeLa [1]): 1.21

Compound: COc1ccc(C(N)=O)cc1
fold change (FC) (HeLa [1]): 1.11

Compound: COc1ccc(C(=O)NCCC2=CCCCC2)cc1
fold change (FC) (HeLa [1]): 1.05

Compound: O=C(NCCC1=CCCCC1)c1cccc(O)c1
fold change (FC) (HeLa [1]): 1.61

Compound: C=CCNC(=O)c1ccc(OC)cc1
fold change (FC) (HeLa [1]): 1.28

Compound: O=C(Nc1ccccc1)c1ccccc1
fold change (FC) (HeLa [1]): 1.49

inhibition (Lampyridae): inactive
EC50 [6]: 6.1 µM
Compound: O=C(NCCC1=CCCCC1)c1ccc(O)c(O)c1
inhibition (HeLa [2]): inactive
inhibition (HeLa [9]): > 100%
inhibition (HeLa [3]): inactive
inhibition (Huh-7): inactive
inhibition (HeLa [4]): inactive
inhibition at 10 µM (HeLa [5]): 42%
fold change (FC) (HeLa [1]): 2.22
inhibition (HeLa [7]): inactive
inhibition (HeLa [8]): inactive

Compound: COc1ccc(C(=O)NCCC2=CCCCC2)cc1OC1CCN(C(C)C)CC1
fold change (FC) (HeLa [1]): 1.36

Compound: O=C(NCCC1=CCCCC1)c1ccc(O)cc1
fold change (FC) (HeLa [1]): 1.66

Compound: COc1ccc(C(=O)NCCc2ccccn2)cc1
fold change (FC) (HeLa [1]): 1

Compound: CCCOc1ccc(C(=O)NCCc2ccccc2)cc1
fold change (FC) (HeLa [1]): 1.36

Compound: COc1ccc(C(=O)NCCc2ccccc2)cc1O
fold change (FC) (HeLa [1]): 0.95

Compound: Nc1ccc(C(=O)NCCc2ccccc2)cc1
fold change (FC) (HeLa [1]): 1.46

Compound: COc1ccc(C(=O)NCCC2=CCCCC2)cc1OC(C)=O
fold change (FC) (HeLa [1]): 1.83

Compound: COc1ccc(C(=O)NCCCCc2ccccc2)cc1
fold change (FC) (HeLa [1]): 1.03

Compound: CCCNC(=O)c1ccc(OC)c(O)c1
fold change (FC) (HeLa [1]): 1.11
